SMILES strings stand for the structures. Starred links: 1 amine or outer side, 2 acyl side, 3 side chain; linkers in the order of their positions; H or OH if unused. Non-standard residues stand in square brackets, D forms with d. Residues, ends and D or L forms follow the SMILES beside them. *: point of attachment. Azetidine3carboxylic = O=C(C1CN([*:1])C1)[*:2]; Pyrrolidine3carbonyl(3S) = O=C([C@H]1CCNC1)*; X6 = O=C(C1[C@H]2CC[C@H](C2)N1[*:1])[*:2]; X5 = NC12CC3CC(C1)CC(CC(=O)*)(C3)C2; dBta = N[C@H](Cc1csc2ccccc12)C(=O)O; dCit = NC(=O)NCCC[C@@H](N)C(=O)O; X7 = O=C([C@@]12CNC[C@@H]1C2)*; dTle = CC(C)(C)[C@@H](N)C(=O)O; Ac4c(3-oxa) = NC1(C(=O)O)COC1; dNle = CCCC[C@@H](N)C(=O)O; Nle = CCCC[C@H](N)C(=O)O; dAbu = CC[C@@H](N)C(=O)O; Api = NC1(C(=O)O)CCNCC1; X4 = O=C([C@H]1CNCCO1)*; dAze = O=C(O)[C@H]1CCN1 Where only a bound is given, the exact number is not on record here.

Chain of GHSR-1a (Q92847 whole entry): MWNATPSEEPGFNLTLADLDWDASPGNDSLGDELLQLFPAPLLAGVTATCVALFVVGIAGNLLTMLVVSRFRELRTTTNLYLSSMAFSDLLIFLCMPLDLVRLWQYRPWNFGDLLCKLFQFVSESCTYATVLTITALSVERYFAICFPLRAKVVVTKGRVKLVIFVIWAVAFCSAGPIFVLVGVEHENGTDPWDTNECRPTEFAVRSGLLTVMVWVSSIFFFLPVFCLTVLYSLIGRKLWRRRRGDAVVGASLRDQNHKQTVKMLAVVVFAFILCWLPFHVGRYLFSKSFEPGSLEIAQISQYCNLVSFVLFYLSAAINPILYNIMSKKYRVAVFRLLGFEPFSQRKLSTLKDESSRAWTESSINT

The target of the assay is GHSR-1a (Homo sapiens (Human), UniProt Q92847). Description: Agonistic activity for GHSR-1a, FLIPR calcium assay. In kind it is cell-based. As to conditions: agonist activity assay, Flp In-CHO-GHSR Stable Pool cells, FLIPR calcium 6 kit; read-out: The activity (IC50) of polypeptide compounds for GHSR-1a. From the text:
The use of recombinant expression of GHSR provides several advantages; for example, the receptor can be expressed in a determined cell system, so that it is easier to distinguish between the reactions of the compounds with GHSR and the reactions with other receptors. For example, cell lines such as HEK293, COS7 and CHO that […] can be used to express GHSR, and the same cell lines without expression vectors are used as controls.
The activity of GHSR-1a can be measured using different techniques, for example, by detecting the change in the intracellular conformation of GHSR, the change in G-protein coupling activity, and/or the change in intracellular messengers. Techniques such as measuring intracellular Ca^2+ are preferably used to measure the activity of GHSR-1a. Examples of techniques known in the art that can be used to measure Ca^2+ include the use of FLIPR® calcium ion assay kits, among others. The FLIPR® calcium ion assay kits use a calcium ion sensitive indicator and a masking dye to ensure that a researcher carries out high-sensitivity fluorescent screening for G protein-coupled receptors, ion channels and other calcium ion sensitive targets. This experiment used FLIPR calcium 6 assay kits and FLIPR calcium 6-QF assay kits.
• a) Cell line: Flp In-CHO-GHSR Stable Pool; • b) Complete medium: F12K+10% fetal bovine serum+1×penicillin-streptomycin (PS)+600 μg/mL hygromycin B; • c) Cell seeding medium: F12K+10% fetal bovine serum. • d) Assay buffer: 1× HBSS+20 mM HEPES. • e) […] component A: Assay buffer and component A were left at room temperature (RT), 10 mL of buffer was added to component A, and the mixture was vortexed for 1-2 min and stored at −20° C.
• a) Compound stock solutions: the powders from in-house synthesis were made into 10 mM stock solutions in DMSO according to the standard protocol. • b) Compound storage: all compounds in DMSO were stored in room temperature desiccators for short-term storage (at most 4 months). The remaining compounds were left at −20 ° C. for long-term storage.
• a) Flp In-CHO-GHSR Stable Pool cells were cultured in complete medium. • b) The cells were placed in […] cell seeding medium in a 384-well cell culture plate (Corning, 3764) at 7k cells/well and cultured overnight at 37° C. with 5% CO2. • c) 20× component A was thawed at room temperature, diluted with assay buffer to 2×, and left at RT. • d) The Petri dish was taken out of the incubator and equilibrated at room temperature for 10 min. The medium was changed to […]. After the final wash, 20 μL of buffer was kept in each well, 20 μL of 2× component A was then added to each well, and the plate was incubated at 37° C. for 3-5 s. • e) 10 μL of 5× compound was added to the 384-well cell culture plate, and data collection was immediately performed using FLIPR Tetra.
• 1) Z′ factor=1−3×(SDMax+SDMin)/(MeanMax−MeanMin); • 2) CVMax=(SDMax/MeanMax)×100%; • 3) CVMin=(SDMin/MeanMin)×100%; • 4) S/B=Singal/Background; • 5) Calculation formula for IC50: • Y=Bottom+(Top−Bottom)/(1+10^((LogIC50−X)×HillSlope)) • X: log value of compound concentration; Y: Activation % or Inhibition %
One may read the IC50 as the concentration needed to halve the response being measured. For the compound `CCCC[C@@H](NC(=O)[C@@H](CCCCN)NC(=O)[C@H](Cc1ccccc1)NC(=O)[C@@H](Cc1c[nH]c2ccccc12)NC(=O)[C@@H](Cc1csc2ccccc12)NC(=O)[C@H](N)CC)C(N)=O` [Compound 81] (H-[dAbu][dBta][dW]F[dK][dNle]-NH2), the IC50 is 7.2 nM. The result for `N=C(N)NCCC[C@@H](NC(=O)[C@H](Cc1ccccc1)NC(=O)[C@@H](Cc1c[nH]c2ccccc12)NC(=O)[C@@H](Cc1csc2ccccc12)NC(=O)C1CNC1)C(N)=O` [Compound 63] (Azetidine3carboxylic-[dBta][dW]F[dR]-NH2) reads 27 nM.

Consider `NCCCC[C@@H](NC(=O)[C@H](Cc1ccccc1)NC(=O)[C@@H](Cc1c[nH]c2ccccc12)NC(=O)[C@@H](Cc1csc2ccccc12)NC(=O)CC12CC3CC(CC(N)(C3)C1)C2)C(N)=O` [Compound 58] (X5-[dBta][dW]F[dK]-NH2), for which the IC50 was determined as 104 nM. The value for `CCCC[C@@H](NC(=O)C1(NC(=O)[C@H](Cc2ccccc2)NC(=O)[C@@H](Cc2c[nH]c3ccccc23)NC(=O)[C@@H](Cc2csc3ccccc23)NC(=O)[C@H](N)CC)CCNCC1)C(=O)N[C@H](C)C(N)=O` [Compound 84] (H-[dAbu][dBta][dW]F[Api][dNle][dA]-NH2) was 6.7 nM. The value for `N=C(N)NCCC[C@@H](NC(=O)[C@H](Cc1ccccc1)NC(=O)[C@@H](Cc1c[nH]c2ccccc12)NC(=O)[C@@H](Cc1csc2ccccc12)NC(=O)[C@@]12CNC[C@@H]1C2)C(N)=O` [Compound 70] (X7-[dBta][dW]F[dR]-NH2) was 39.7 nM. The value for `NCCCC[C@@H](NC(=O)[C@H](Cc1ccccc1)NC(=O)[C@@H](Cc1c[nH]c2ccccc12)NC(=O)[C@@H](Cc1csc2ccccc12)NC(=O)[C@H]1CCN1)C(N)=O` [Compound 55] (H-[dAze][dBta][dW]F[dK]-NH2) was 20 nM; that for `CC(C)[C@@H](N)C(=O)N[C@H](Cc1csc2ccccc12)C(=O)N[C@H](Cc1c[nH]c2ccccc12)C(=O)N[C@@H](Cc1ccccc1)C(=O)N[C@H](CCCCN)C(N)=O` [Compound 43] (H-[dV][dBta][dW]F[dK]-NH2) was 22.3 nM; that for `N=C(N)NCCC[C@@H](NC(=O)[C@H](Cc1ccccc1)NC(=O)[C@@H](Cc1c[nH]c2ccccc12)NC(=O)[C@@H](Cc1csc2ccccc12)NC(=O)[C@H]1CCNC1)C(N)=O` [Compound 66] ({Pyrrolidine3carbonyl(3S)}-[dBta][dW]F[dR]-NH2) was 12 nM.

With `CC(=O)NCCCC[C@@H](N)C(=O)N[C@H](Cc1csc2ccccc12)C(=O)N[C@H](Cc1c[nH]c2ccccc12)C(=O)N[C@@H](Cc1ccccc1)C(=O)N[C@H](CCCCN)C(N)=O` [Compound 40] (H-[dK](Ac)[dBta][dW]F[dK]-NH2), the IC50 is 510 nM.

As for `NCCCC[C@H](N)C(=O)N[C@H](Cc1csc2ccccc12)C(=O)N[C@H](Cc1c[nH]c2ccccc12)C(=O)N[C@@H](Cc1ccccc1)C(=O)N[C@H](CCCCN)C(N)=O` [Compound 35] (H-K[dBta][dW]F[dK]-NH2), the IC50 was determined as 102 nM. With `N=C(N)NCCC[C@@H](NC(=O)[C@H](Cc1ccccc1)NC(=O)[C@@H](Cc1c[nH]c2ccccc12)NC(=O)[C@@H](Cc1csc2ccccc12)NC(=O)[C@H]1CNCCO1)C(N)=O` [Compound 67] (X4-[dBta][dW]F[dR]-NH2), the IC50 came out at 23.3 nM. The value for `N=C(N)NCCC[C@@H](NC(=O)[C@H](Cc1ccccc1)NC(=O)[C@@H](Cc1c[nH]c2ccccc12)NC(=O)[C@@H](Cc1csc2ccccc12)NC(=O)[C@H]1CCN1)C(N)=O` [Compound 65] (H-[dAze][dBta][dW]F[dR]-NH2) was 34.3 nM; that for `N=C(N)NCCC[C@@H](NC(=O)[C@H](Cc1ccccc1)NC(=O)[C@@H](Cc1c[nH]c2ccccc12)NC(=O)[C@@H](Cc1csc2ccccc12)NC(=O)C1(N)COC1)C(N)=O` [Compound 64] (H-[Ac4c(3-oxa)][dBta][dW]F[dR]-NH2) was 38.1 nM; that for `NCCCC[C@@H](NC(=O)[C@H](Cc1ccccc1)NC(=O)[C@@H](Cc1c[nH]c2ccccc12)NC(=O)[C@@H](Cc1csc2ccccc12)NC(=O)C1N[C@@H]2CC[C@H]1C2)C(N)=O` (stereo partly drawn) [Compound 59] (H-[X6][dBta][dW]F[dK]-NH2) was 16.8 nM. In the case of `N=C(N)NCCC[C@@H](NC(=O)[C@H](Cc1ccccc1)NC(=O)[C@@H](Cc1c[nH]c2ccccc12)NC(=O)[C@@H](Cc1csc2ccccc12)NC(=O)CC12CC3CC(CC(N)(C3)C1)C2)C(N)=O` [Compound 68] (X5-[dBta][dW]F[dR]-NH2), the half-maximal inhibitory concentration (IC50) worked out at 330 nM. The value for `NC(=O)[C@H](Cc1ccccc1)NC(=O)[C@@H](Cc1c[nH]c2ccccc12)NC(=O)[C@@H](Cc1csc2ccccc12)NC(=O)C1N[C@@H]2CC[C@H]1C2` (stereo partly drawn) [Compound 79] was 33.1 nM.

For `CC(=O)N[C@H](CCCCN)C(=O)N[C@H](Cc1csc2ccccc12)C(=O)N[C@H](Cc1c[nH]c2ccccc12)C(=O)N[C@@H](Cc1ccccc1)C(=O)NC1(C(N)=O)CCNCC1` [Compound 7] (Ac-[dK][dBta][dW]F[Api]-NH2), the IC50 stood at 935 nM. In the case of `CCCC[C@@H](N)C(=O)N[C@H](Cc1csc2ccccc12)C(=O)N[C@H](Cc1c[nH]c2ccccc12)C(=O)N[C@@H](Cc1ccccc1)C(=O)NC1(C(N)=O)CCNCC1` [Compound 19] (H-[dNle][dBta][dW]F[Api]-NH2), the half-inhibitory concentration (IC50) came to 42.6 nM.

In the case of `CC(C)(C)[C@@H](N)C(=O)N[C@H](Cc1csc2ccccc12)C(=O)N[C@H](Cc1c[nH]c2ccccc12)C(=O)N[C@@H](Cc1ccccc1)C(=O)NC1(C(N)=O)CCNCC1` [Compound 17] (H-[dTle][dBta][dW]F[Api]-NH2), the IC50 is 31.1 nM.

Take `NCCCC[C@@H](NC(=O)[C@H](Cc1ccccc1)NC(=O)[C@@H](Cc1c[nH]c2ccccc12)NC(=O)[C@@H](Cc1csc2ccccc12)NC(=O)[C@H]1CNCCO1)C(N)=O` [Compound 57] (X4-[dBta][dW]F[dK]-NH2): the IC50 stood at 13.4 nM.

For the compound `NCCCC[C@H](N)C(=O)N[C@H](Cc1csc2ccccc12)C(=O)N[C@H](Cc1c[nH]c2ccccc12)C(=O)N[C@@H](Cc1ccccc1)C(=O)NC1(C(N)=O)CCNCC1` [Compound 5] (H-K[dBta][dW]F[Api]-NH2), the IC50 was above 1000 nM. The result for `CCCC[C@H](N)C(=O)N[C@H](Cc1csc2ccccc12)C(=O)N[C@H](Cc1c[nH]c2ccccc12)C(=O)N[C@@H](Cc1ccccc1)C(=O)NC1(C(N)=O)CCNCC1` [Compound 20] (H-[Nle][dBta][dW]F[Api]-NH2) reads 57.4 nM; that for `CC(=O)N[C@H](CCCNC(N)=O)C(=O)N[C@H](Cc1csc2ccccc12)C(=O)N[C@H](Cc1c[nH]c2ccccc12)C(=O)N[C@@H](Cc1ccccc1)C(=O)NC1(C(N)=O)CCNCC1` [Compound 6] (Ac-[dCit][dBta][dW]F[Api]-NH2), above 1000 nM; that for `CC(C)C[C@@H](N)C(=O)N[C@H](Cc1csc2ccccc12)C(=O)N[C@H](Cc1c[nH]c2ccccc12)C(=O)N[C@@H](Cc1ccccc1)C(=O)N[C@H](CCCCN)C(N)=O` [Compound 44] (H-[dL][dBta][dW]F[dK]-NH2), 13.5 nM. Regarding `N=C(N)NCCC[C@@H](N)C(=O)N[C@H](Cc1csc2ccccc12)C(=O)N[C@H](Cc1c[nH]c2ccccc12)C(=O)N[C@@H](Cc1ccccc1)C(=O)N[C@H](CCCCN)C(N)=O` [Compound 39] (H-[dR][dBta][dW]F[dK]-NH2), the IC50 was 272 nM. The result for `NCCCC[C@@H](NC(=O)[C@H](Cc1ccccc1)NC(=O)[C@@H](Cc1c[nH]c2ccccc12)NC(=O)[C@@H](Cc1csc2ccccc12)NC(=O)CN)C(N)=O` [Compound 41] (H-G[dBta][dW]F[dK]-NH2) reads 31.4 nM; that for `NC(=O)NCCC[C@@H](N)C(=O)N[C@H](Cc1csc2ccccc12)C(=O)N[C@H](Cc1c[nH]c2ccccc12)C(=O)N[C@@H](Cc1ccccc1)C(=O)NC1(C(N)=O)CCNCC1` [Compound 1] (H-[dCit][dBta][dW]F[Api]-NH2), 150 nM.

These data come from patent US20240158438A1, “POLYPEPTIDE COMPOUND AND APPLICATION THEREOF” (CHENGDU SINTANOVO BIOTECHNOLOGY CO., LTD., priority 2021, published 2024).
